# Experimental data from paper PMC9405102, “Targeted Modification and Structure-Activity Study of GL-29, an Analogue of the Antimicrobial Peptide Palustrin-2ISb” (Antibiotics, 2022).
# Where a SMILES comes first, the peptide text is derived from it. Where no end group is shown, it is not given here.
# Experiments:
# [1] = system: Staphylococcus aureus (S. aureus); parameters: method as in PMID 21911019; conditions: cited from earlier work
# [2] = system: Galleria mellonella larvae (waxworms); test: Toxicity of peptide in larvae in vivo; conditions: uninfected larvae
# Experimental: In this assay, Galleria mellonella larvae (waxworms) (Livefood UK Ltd., Rooks Bridge, UK) were used as an infection model to investigate the antimicrobial potency of peptides against S. aureus, which was described in a previous study in detail (Yuan et al., 2019). The larvae, weights between 225 mg and 275 mg, were selected, and nine larvae were stored in a separate Petri dish as a group and they were divided into several groups. Then, 10 µL of the peptide solution at final concentrations of 8 µM and 16 µM, respectively, and 10 µL of PBS were injected into larvae to test the toxicity of peptides and PBS solution. Afterwards, 10 μL of the bacterial suspension in PBS (5 × 10^7 CFU/mL) were injected into larvae. All the infected larvae were ensured to be alive after 2 h of the injection, followed by the treatment with 10 μL of the peptide solution to reach final concentrations of 2, 4 and 8 μM, respectively. The negative control was treated with the same volume of PBS, and the positive control was dosed with the same volume of 20 mg/kg vancomycin (Sigma-Aldrich, UK). The number of living larvae was counted every 24 h for 5 days, except the first day of 12 h.
Compound,MIC [1],toxicity against larvae ([2]; 2 × MIC (20 mg/kg)),toxicity against larvae ([2]; 4 × MIC (40 mg/kg))
"CC[C@H](C)[C@H](NC(=O)[C@H](CCCCN)NC(=O)[C@@H](NC(=O)[C@H](CO)NC(=O)[C@H](CC(N)=O)NC(=O)[C@H](Cc1c[nH]c2ccccc12)NC(=O)[C@H](CC(C)C)NC(=O)CN)[C@@H](C)CC)C(=O)N[C@@H](C)C(=O)NCC(=O)N[C@@H](CCCCN)C(=O)N[C@@H](CCCCN)C(=O)N[C@@H](CC(C)C)C(=O)N[C@@H](Cc1ccccc1)C(=O)N[C@H](C(=O)N[C@@H](CC(N)=O)C(=O)N[C@H](C(=O)N[C@@H](CC(C)C)C(=O)N[C@@H](CC(=O)O)C(=O)N[C@@H](CCCCN)C(=O)N[C@H](C(=O)N[C@@H](CCCNC(=N)N)C(=O)N[C@H]1CSSC[C@@H](C(=O)O)NC(=O)CNC(=O)CNC(=O)[C@H](C)NC(=O)[C@H](C(C)C)NC(=O)[C@H](CCCCN)NC1=O)[C@@H](C)CC)C(C)C)C(C)C [GL-29] (HELM PEPTIDE1{G.L.W.N.S.I.K.I.A.G.K.K.L.F.V.N.V.L.D.K.I.R.C.K.V.A.G.G.C}$PEPTIDE1,PEPTIDE1,23:R3-29:R3$$$V2.0; N-terminus and C-terminus assumed; bridges inferred)",6.3 µM,,
GLWNSIKIAGKKLFVNVLDKIR-NH2 [GL-22],,no toxicity,high toxicity
